Data published in article PMC8269059, “Glycyrrhizin Derivatives Suppress Cancer Chemoresistance by Inhibiting Progesterone Receptor Membrane Component 1” (Cancers, 2021).
Values joined by “and” are separate entries in the source; they are usually repeats but may differ in a detail not shown here. Equal values may be shown once. “Also recorded” adds a separate entry of the source. Read-outs that look alike come from different tables or passages of the source.

Assays:
HCT116 cells = assay: Chemosensitivity MTT assay in HCT116 cells; format: cell-based, human; conditions: for Anti-proliferative / anti-cancer effect with anti-cancer agents: HCT116, MTT, with erlotinib or CDDP, compared with GL; for IC50: Homo sapiens, HCT-116, HCT116 cell viability, MTT
heme-dimerized PGRMC1 = molecular target: T1, heme-dimerized PGRMC1 (Homo sapiens, UniProt O00264); assay: ITC binding to heme-dimerized PGRMC1; conditions: ITC; for KD / Kd: 298 K, 50 mM phosphate pH 7.0, heme-dimerized PGRMC1 (WT); for TΔS / ΔG / ΔH: heme-dimerized PGRMC1 (WT)
T1 construct: human PGRMC1 intracellular domain residues 43-195; GST (N, cleaved yes); made in house; host or cells: E. coli BL21 (DE3)
T1 sequence (O00264 43-195): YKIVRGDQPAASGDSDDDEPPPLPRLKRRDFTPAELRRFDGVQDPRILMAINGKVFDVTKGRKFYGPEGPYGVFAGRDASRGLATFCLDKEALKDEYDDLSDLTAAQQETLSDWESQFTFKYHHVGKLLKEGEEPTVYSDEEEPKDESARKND

[1] = system: GFP-fused PGRMC1 protein partially purified from granulosa cells; conditions: competitive binding with labeled-progesterone; cited from earlier work
apo-PGRMC1 = molecular target: T2, apo-PGRMC1 (Homo sapiens, UniProt O00264); assay: ITC binding to apo-PGRMC1; conditions: apo-monomer form
T2 construct: human PGRMC1 intracellular domain residues 43-195; GST (N, cleaved yes); made in house; host or cells: E. coli BL21 (DE3)
T2 sequence (O00264 43-195): as above
From the text: Bacterial expression vectors pGEX-PGRMC1 (human PGRMC1 intracellular domain residues 43-195) and mammalian FLAG-tagged expression vector pCMV-FLAG-PGRMC1 (full-length) were constructed as described previously. Expression vectors for PGRMC1 point mutants were generated by site-directed mutagenesis with PCR. For construction of HMGB1 expression vector, human HMGB1 full-length cDNA was cloned from cDNA library of HCT116 cells using the primers (Forward: 5′-[…]-3′, Reverse: 5′-[…]-[…]-3′), digested with Bam HI and Sal I, and then ligated into pGEX6P1.
Expression vectors (pGEX-PGRMC1 (residues 43-195) or pGEX-HMGB1) were transformed into BL21 (DE3) competent E. coli cells, and the cells incubated in LB medium with ampicillin at 37 °C until the OD600 reached 0.8. Protein expression was induced by adding 1 mM isopropyl-β-thiogalactopyranoside (IPTG) and incubating at 37 °C for 4 h. […]
ITC experiments were performed at 298 K with ITC-Buffer (50 mM phosphate [pH 7.0]) using a MicroCal iTC200 (Malvern Panalytical, Malvern, UK). […] Binding isotherms were analyzed using SEDPHAT [35]. The binding of AG205 to apo- or heme-PGRMC1 (100 μM) was analyzed using a concentration of 3 mM containing 1% DMSO. […]

HCT116 cells xenograft = assay: HCT116 xenograft in nude mice; format: in vivo, mouse; conditions: i.p. twice a week, 22 days, CDDP 2 mg/kg, GL 400 mg/kg, vs control
Experimental: All protocols for animal experiments in this study were approved by the Experimental Animal Committee of Keio University School of Medicine (approval number: 08024-(13), approval date: 30 September 2020). HCT116 cells (2 × 10^6 cells/mouse) with half of Matrigel (Corning, NY, USA) were transplanted subcutaneously into the flank of 7-week-old nude mice. Four days after the transplantation, tumor size was measured in three dimensions with calipers and grouped by tumor volume. CDDP (2 mg/kg), GL (400 mg/kg), or GlucoGL (100 mg/kg) were administered to the mice intraperitoneally, and the tumor volume was measured twice a week for 22 days.

[2] = with CDDP (10 µM), read-out: IC50 CDDP
[3] = with erlotinib (20 µM), read-out: IC50 Erlotinib

KD (heme-dimerized PGRMC1)	IC50 (HCT116 cells; [2]) [µM]	IC50 (HCT116 cells; [3]) [µM]	Kd (heme-dimerized PGRMC1)	TΔS (heme-dimerized PGRMC1) [K·kcal/mol]	ΔG (heme-dimerized PGRMC1) [kcal/mol]	ΔH (heme-dimerized PGRMC1) [kcal/mol]	SMILES	Anti-proliferative / anti-cancer effect with anti-cancer agents (HCT116 cells)	also measured
No Binding	–	–	–	–	–	–	CC12CCC3(C)C(=CC(=O)C4C5(C)CCC(OC6OC(C(=O)O)C(O)C(O)C6OC6OC(C(=O)O)C(O)C(O)C6O)C(C)(C)C5CCC43C)C1CC(C)(C(=O)O)C(O)C2 (centres unmarked) [Macedonoside A]	weaker anti-proliferative effects	–
–	41.2	50.5	9.55 µM	6.23	-6.85	-0.62	CC1(C(=O)O)CCC2(C)CCC3(C)C(=CC(=O)C4C5(C)CCC(OC6OC(C(=O)O)C(O)C(O)C6O)C(C)(C)C5CCC43C)C2C1 (centres unmarked) [Glycyrrhetinic acid-3-O-mono-glucuronide]	–	–
–	–	–	815 µM and 816 µM	–	-4.22	-23.26	CC(=O)[C@H]1CC[C@H]2[C@@H]3CCC4=CC(=O)CC[C@]4(C)[C@H]3CC[C@]12C [Progesterone]	–	Kd [1]: 0.035 µM
Weak Binding	–	–	–	–	–	–	CC1(C)[C@@H](O)CC[C@]2(C)[C@H]3C(=O)C=C4[C@@H]5C[C@@](C)(C(=O)O)CC[C@]5(C)CC[C@@]4(C)[C@]3(C)CC[C@@H]12 [Glycyrrhetinic acid (GA), Glycyrrhetinic acid]	–	KD (heme-dimerized PGRMC1; listed as GA): did not detect significant binding
No Binding	–	–	–	–	–	–	CC1(C)[C@@H](OC(=O)CCC(=O)O)CC[C@]2(C)[C@H]3C(=O)C=C4[C@@H]5C[C@@](C)(C(=O)O)CC[C@]5(C)CC[C@@]4(C)[C@]3(C)CC[C@@H]12 [Carbenoxolone]	weaker anti-proliferative effects	–
–	35.1	62.5	4.85 µM	6.18	-7.26	-1.08	CC1(C(=O)O)CCC2(C)CCC3(C)C(=CC(=O)C4C5(C)CCC(OC6OC(C(=O)O)C(O)C(O)C6OC6OCC(O)(CO)C6O)C(C)(C)C5CCC43C)C2C1 (centres unmarked) [Apioglycyrrhizin]	potent anti-cancer effects	–
–	17.2	19.1	1.08 µM	6.08	-8.15	-2.07	CC1OC(OC2C(OC3C(OC4CCC5(C)C(CCC6(C)C5C(=O)C=C5C7CC(C)(C(=O)O)CCC7(C)CCC56C)C4(C)C)OC(C(=O)O)C(O)C3O)OC(CO)C(O)C2O)C(O)C(O)C1O (centres unmarked) [Rhaoglucoglycyrrhizin]	potent anti-cancer effects	–
No Binding	–	–	–	–	–	–	CC1(C(=O)O)CCC2(C)CCC3(C)C(=CC(=O)C4C5(C)CCC(OC6OC(C(=O)O)C(O)C(O)C6OC6OC(C(=O)O)C(O)C(O)C6O)C(C)(C)C5CCC43C)C2C1 (centres unmarked) [Licorice-saponin H2]	weaker anti-proliferative effects	–
–	26.6	35.3	8.46 µM	5.90	-6.93	-1.03	CC1(C(=O)O)CCC2(C)CCC3(C)C(=CC(=O)C4C5(C)CCC(OC6OC(C(=O)O)C(O)C(O)C6OC6OCC(O)C(O)C6O)C(C)(C)C5CCC43C)C2C1 (centres unmarked) [Araboglycyrrhizin]	potent anti-cancer effects	–
–	–	–	128 µM	4.08	-5.31	-1.23	CC1(C(=O)O)CCC2(C)CCC3(C)C(=CC(=O)C4C5(C)CCC(OC6OC(C(=O)O)C(O)C(O)C6OC6OC(C(=O)O)C(O)C(O)C6O)C(C)(CO)C5CCC43C)C2C1 (centres unmarked) [Licorice-saponin G2]	weaker anti-proliferative effects	–
–	–	–	–	–	–	–	[NH2][Pt]([NH2])([Cl])[Cl] [CDDP, cisplatin]	–	Tumor volume, administered individually (HCT116 cells xenograft): no differences in tumor volume

SMILES	KD (heme-dimerized PGRMC1)	IC50 (HCT116 cells; [2]) [µM]	IC50 (HCT116 cells; [3]) [µM]	Kd (heme-dimerized PGRMC1)	TΔS (heme-dimerized PGRMC1) [K·kcal/mol]	ΔG (heme-dimerized PGRMC1) [kcal/mol]	ΔH (heme-dimerized PGRMC1) [kcal/mol]	Anti-proliferative / anti-cancer effect with anti-cancer agents (HCT116 cells)	also measured
Cc1ccc2c(c1)[C@H]1CN(C)CC[C@H]1N2C(=O)CSc1nnnn1-c1ccc(Cl)cc1 [AG205]	no binding activity; also recorded: did not observe AG205 binding	–	–	–	–	–	–	–	Binding to apo-PGRMC1 (apo-PGRMC1): no binding activity; also recorded: did not observe AG205 binding
